≈ marks a conversion by molar mass, not a printed value.
How the values were obtained:
Pseudomonas aeruginosa [1] = test: Antimicrobial activity against Pseudomonas aeruginosa PA2616 harboring delta mexAB-OprM mutant by broth microdilution method; type: functional
[2] = Cmax in NMRI/ICR CD-1 mouse at 50 mg/kg, sc by LC-MS/MS analysis; type: ADME, organism-based; design: dose 50 mg/kg, route subcutaneous; settings: in vivo
[3] = Free AUC (0 to 24 hrs) in NMRI/ICR CD-1 mouse at 75 mg/kg, sc by LC-MS/MS analysis; type: ADME, organism-based; settings: in vivo
[4] = Apparent clearance in NMRI/ICR CD-1 mouse at 75 mg/kg, sc by LC-MS/MS analysis; type: ADME, organism-based; settings: in vivo
Mus musculus [5] = test: Apparent unbound clearance in NMRI/ICR CD-1 mouse at 75 mg/kg, sc by LC-MS/MS analysis; type: ADME, organism-based; settings: in vivo
[6] = mouse, plasma, 1 µM
Description: Protein binding in mouse plasma assessed as fraction unbound at 1 uM by equilibrium dialysis method

in vivo = settings: NMRI/ICR CD-1, mouse, sc, 50 mg/kg
physchem [7] = settings: n-octanol/phosphate buffered saline, pH 7.4
Description: n-Octanol/phosphate buffered saline partition coefficient, log D of the compound at pH 7.4 by LC-UV method

physchem [8] = settings: DMSO, pH 7
Description: Solubility of the compound in DMSO at pH 7 incubated for 24 hrs by LC-UV method

physchem [9] = settings: DMSO, pH 9
Description: Solubility of the compound in DMSO at pH 9 incubated for 24 hrs by LC-UV method

Escherichia coli [10] = test: microbe, parasite or virus in culture; settings: ATCC 25922
Description: Antibacterial activity against wild-type Escherichia coli ATCC 25922 by broth microdilution method

Klebsiella pneumoniae = test: microbe, parasite or virus in culture; settings: T 6474
Description: Antibacterial activity against multi-drug resistant Klebsiella pneumoniae T 6474 by broth microdilution method

Pseudomonas aeruginosa [11] = test: microbe, parasite or virus in culture; settings: ATCC 27853
Description: Antimicrobial activity against Pseudomonas aeruginosa ATCC 27853 by broth microdilution method

Pseudomonas aeruginosa [12] = test: microbe, parasite or virus in culture; settings: PAO1
Description: Antimicrobial activity against wild-type Pseudomonas aeruginosa PAO1 by broth microdilution method

Escherichia coli [13] = test: Antibacterial activity against Escherichia coli infected in cyclophosphamide-induced NMRI/ICR CD-1 mouse model of neutropenic thigh infection assessed as reduction in thigh bacterial load at 50 mg/kg, sc measured after 22 hrs relative to control; type: functional
Escherichia coli [14] = test: Antibacterial activity against Escherichia coli infected in cyclophosphamide-induced NMRI/ICR CD-1 mouse model of neutropenic thigh infection assessed as reduction in thigh bacterial load at 150 mg/kg, sc measured after 22 hrs relative to control; type: functional
[15] = AUC (0 to 24 hrs) in NMRI/ICR CD-1 mouse at 150 mg/kg, sc by LC-MS/MS analysis; type: ADME, organism-based; design: dose 150 mg/kg, time < 24 hr, route subcutaneous; settings: in vivo
[16] = Free AUC (0 to 24 hrs) in NMRI/ICR CD-1 mouse at 150 mg/kg, sc by LC-MS/MS analysis; type: ADME, organism-based; settings: in vivo
[17] = Apparent clearance in NMRI/ICR CD-1 mouse at 150 mg/kg, sc by LC-MS/MS analysis; type: ADME, organism-based; settings: in vivo
Mus musculus [18] = test: Apparent unbound clearance in NMRI/ICR CD-1 mouse at 150 mg/kg, sc by LC-MS/MS analysis; type: ADME, organism-based; settings: in vivo
[19] = Tmax in NMRI/ICR CD-1 mouse at 150 mg/kg, sc by LC-MS/MS analysis; type: ADME, organism-based; settings: in vivo
[20] = system: T1, UDP-3-O-acyl-N-acetylglucosamine deacetylase (Escherichia coli K-12), P0A725 [C125S]
T1 sequence (whole entry): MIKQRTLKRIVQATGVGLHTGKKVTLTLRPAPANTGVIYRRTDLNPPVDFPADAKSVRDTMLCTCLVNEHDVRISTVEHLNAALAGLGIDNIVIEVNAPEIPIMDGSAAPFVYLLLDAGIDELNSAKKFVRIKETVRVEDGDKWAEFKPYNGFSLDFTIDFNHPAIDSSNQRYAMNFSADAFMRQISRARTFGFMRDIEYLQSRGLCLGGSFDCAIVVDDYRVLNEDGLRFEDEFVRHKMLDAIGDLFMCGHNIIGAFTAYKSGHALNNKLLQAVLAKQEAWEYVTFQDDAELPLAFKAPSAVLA

[21] = system: T2, UDP-3-O-acyl-N-acetylglucosamine deacetylase (Pseudomonas aeruginosa (strain ATCC 15692 / PAO1 / 1C / PRS 101 / LMG12228)), P47205 [C40S]
T2 sequence (whole entry): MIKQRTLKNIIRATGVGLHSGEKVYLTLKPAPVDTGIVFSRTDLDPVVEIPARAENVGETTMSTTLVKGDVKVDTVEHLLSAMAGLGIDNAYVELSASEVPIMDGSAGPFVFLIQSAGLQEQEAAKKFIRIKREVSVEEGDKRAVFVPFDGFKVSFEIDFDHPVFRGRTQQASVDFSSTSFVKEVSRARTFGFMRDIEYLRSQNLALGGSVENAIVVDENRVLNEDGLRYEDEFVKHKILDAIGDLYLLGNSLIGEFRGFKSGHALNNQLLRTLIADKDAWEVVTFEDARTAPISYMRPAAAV

physchem [22] = settings: DMSO, pH 4
Description: Solubility of the compound in DMSO at pH 4 incubated for 24 hrs by LC-UV method

[23] = Apparent clearance in NMRI/ICR CD-1 mouse at 50 mg/kg, sc by LC-MS/MS analysis; type: ADME, organism-based; settings: in vivo
Mus musculus [24] = test: Apparent unbound clearance in NMRI/ICR CD-1 mouse at 50 mg/kg, sc by LC-MS/MS analysis; type: ADME, organism-based; settings: in vivo
[25] = Tmax in NMRI/ICR CD-1 mouse at 50 mg/kg, sc by LC-MS/MS analysis; type: ADME, organism-based; settings: in vivo
[26] = mouse, in vivo, sc, 50 mg/kg
Escherichia coli [27] = test: Antibacterial activity against Escherichia coli infected in cyclophosphamide-induced NMRI/ICR CD-1 mouse model of neutropenic thigh infection assessed as reduction in thigh bacterial load at 450 mg/kg, sc administered as single dose measured after 22 hrs relative to control; type: functional
Escherichia coli [28] = test: Antibacterial activity against Escherichia coli infected in cyclophosphamide-induced NMRI/ICR CD-1 mouse model of neutropenic thigh infection assessed as reduction in thigh bacterial load at 112.54 mg/kg, sc administered at 5.5 hrs interval for 4 times relative to control; type: functional

| Structure (SMILES) | MIC (Pseudomonas aeruginosa [1]) [µg/mL] | Cmax [2] [ng/mL] | Fu [6] [%] | AUC(0-t) at 24 h (in vivo) [ng·h/mL] | logD (physchem [7]) | solubility at 24 h (physchem [8]) [µg/mL] | solubility at 24 h (physchem [9]) [µg/mL] | MIC (Escherichia coli [10]) [µg/mL] | MIC (Klebsiella pneumoniae) [µg/mL] | MIC (Pseudomonas aeruginosa [11]) [µg/mL] | MIC (Pseudomonas aeruginosa [12]) [µg/mL] | fold change (FC) (Escherichia coli [13]) | fold change (FC) (Escherichia coli [14]) | ΔTm [20] [°C] | ΔTm [21] [°C] | solubility at 24 h (physchem [22]) [µg/mL] | CL/F [23] [mL/min/kg] | CLu/F (Mus musculus [24]) [mL/min/kg] | Tmax [25] [min] | fAUC [26] [ng·h/mL] | further results |
| --- | --- | --- | --- | --- | --- | --- | --- | --- | --- | --- | --- | --- | --- | --- | --- | --- | --- | --- | --- | --- | --- |
| COc1ccc(-c2ccn(CC[C@](C)(C(=O)NO)S(C)(=O)=O)c(=O)c2)c(F)c1 | ≤ 0.06 | 10300 | 0.31 | 11700 | 1.1 | 130 (≈ 315 µM) | 692 (≈ 1680 µM) | ≤ 0.06 | 0.25 (≈ 0.606 µM) | 0.5 (≈ 1.21 µM) | 0.25 to 0.5 (≈ 0.606 to 1.21 µM) | – | – | – | – | – | – | – | – | – | fAUC [3]: 3620 ng·h/mL; CL/F [4]: 72 mL/min/kg; CLu/F (Mus musculus [5]): 231 mL/min/kg |
| C[C@@](CCN1Cc2cc(C#CC#CC3(N)CC3)cn2C1=O)(C(=O)NO)S(C)(=O)=O.Cl | – | 8600 | 0.078 | – | – | 418 | 536 | 0.25 | 0.25 | 0.5 | 0.5 | 2.8 | 1.8 | 10 | 11.6 | 571 | – | – | – | – | AUC(0-t) at 24 h [15]: 14900 ng·h/mL; fAUC [16]: 1160 ng·h/mL; CL/F [17]: 55.9 mL/min/kg; CLu/F (Mus musculus [18]): 716 mL/min/kg; Tmax [19]: 30 min |
| C[C@@](CCN1Cc2cc(C#CC#C[C@H]3C[C@@H]3CO)cn2C1=O)(C(=O)NO)S(C)(=O)=O | – | 22600 | 0.009 | 41000 | – | – | – | 0.12 (≈ 0.277 µM) | 0.25 (≈ 0.577 µM) | 0.25 (≈ 0.577 µM) | 0.5 (≈ 1.15 µM) | 1.8 | 0.8 | 11.2 | 13.2 | 600 (≈ 1380 µM) | 20.2 | 2300 | 30 | 370 | – |
| COc1ccc(-c2ccc3c(c2)oc(=O)n3CC[C@](C)(C(=O)NO)S(C)(=O)=O)c(F)c1 | ≤ 0.06 | – | – | – | 2.2 | 7 (≈ 15.5 µM) | 66 (≈ 146 µM) | 0.5 (≈ 1.11 µM) | 4 (≈ 8.84 µM) | 8 (≈ 17.7 µM) | 4 (≈ 8.84 µM) | – | – | 8.2 | 11 | – | – | – | – | – | – |
| COc1ccc(-c2ccc3c(c2)CN(CC[C@](C)(C(=O)NO)S(C)(=O)=O)C3=O)c(F)c1 | 0.25 (≈ 0.555 µM) | – | – | – | 1.9 | 5 (≈ 11.1 µM) | 22 (≈ 48.8 µM) | ≤ 0.06 | ≤ 0.06 | 2 (≈ 4.44 µM) | 2 (≈ 4.44 µM) | – | – | 9.1 | 11 | – | – | – | – | – | – |
| COc1ccc(-c2cc3n(c2)C(=O)N(CC[C@](C)(C(=O)NO)S(C)(=O)=O)C3)c(F)c1 | 0.12 (≈ 0.273 µM) | – | – | – | 1.8 | 37 (≈ 84.2 µM) | 302 (≈ 687 µM) | 0.12 (≈ 0.273 µM) | 0.25 (≈ 0.569 µM) | 1 (≈ 2.28 µM) | 0.5 (≈ 1.14 µM) | – | – | 8.1 | 11.5 | – | – | – | – | – | – |
| C[C@@](CCN1Cc2cc(C#Cc3ccc([C@H](O)CO)cc3)cn2C1=O)(C(=O)NO)S(C)(=O)=O | – | 41300 | 0.016 | 76500 | 0.5 | 605 (≈ 1270 µM) | 660 (≈ 1390 µM) | 0.5 (≈ 1.05 µM) | 1 (≈ 2.1 µM) | 1 (≈ 2.1 µM) | 1 (≈ 2.1 µM) | 2.4 | 0.4 | 11.1 | 12.7 | 167 (≈ 351 µM) | 10.8 | 680 | 30 | 1230 | – |
| C[C@@](CCN1Cc2cc(C#CC#CC3(CO)CC3)cn2C1=O)(C(=O)NO)S(C)(=O)=O | – | 20200 | 0.085 | 33000 | – | – | – | 0.25 (≈ 0.577 µM) | 1 (≈ 2.31 µM) | 0.5 (≈ 1.15 µM) | 1 (≈ 2.31 µM) | 2.1 | 0.8 | 9.9 | 12.5 | – | 25.1 | 295 | 30 | 2810 | fold change (FC) (Escherichia coli [27]): 1; fold change (FC) (Escherichia coli [28]): 1.5 |
| COc1ccc(-c2cc3c(s2)C(=O)N(CC[C@](C)(C(=O)NO)S(C)(=O)=O)C3)c(F)c1 | 0.12 (≈ 0.263 µM) | – | – | – | 2.1 | 5 (≈ 11 µM) | 36 (≈ 78.9 µM) | ≤ 0.06 | 0.25 (≈ 0.548 µM) | 1 (≈ 2.19 µM) | 0.5 (≈ 1.1 µM) | – | – | 9.3 | 12.4 | – | – | – | – | – | – |
